A word on the AC50: it is the midpoint of the concentration-response curve, whichever way the signal moves. For orientation: EC50 means the concentration needed to bring the measured effect to its halfway point. Usually CC50 stands for the concentration giving 50% cytotoxicity. The IC50 is the concentration needed to halve the response being measured.

Molecules are shown by their SMILES. Activity calls are given as the source filed them.

We go through 40 compounds from ChEMBL document CHEMBL1201862, “PubChem BioAssay data set” (2004).

In assay [1] the target is FAD-linked sulfhydryl oxidase ALR (Homo sapiens, UniProt P55789). Kind of assay: ALR-catalysed DTT oxidation blockers – biochemical, H2O2 detection, luminescence, cherry-pick, dose response (AID 493248).
Assay [2] relates to Streptococcus. Kind of assay: GAS UMAA2166 growth inhibition – luminescence, BacTiterGlo, counter-screen for streptokinase expression inhibitor project, dose response (AID 1915).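 Also: potency for reduction of bacterial viability or growth.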 The format is functional, organism-based. Background: The purpose of a counterscreen is to sort out artefacts and off-target activity.
The subject of assay [3] is Streptococcus sp. 'group A'. Kind of assay: Streptococcus pyogenes SK(-)GAS viability under kanamycin – luminescence, BacTiterGlo, confirmation, counter-screen for streptokinase expression inhibitor project, dose response (AID 1900). The format is functional, organism-based.
Assay [4] can be described thus: Luminescence Cell-Based Dose Retest to Confirm Inhibitors of Cancer Stem Cells. [Related pubchem assays (depositor defined):AID2717, AID2721]. The format is functional. Conditions: Homo sapiens.
The target of assay [5] is T1, Streptokinase A (Streptococcus pyogenes serotype M1, UniProt P10520).
T1 sequence (P10520 whole entry): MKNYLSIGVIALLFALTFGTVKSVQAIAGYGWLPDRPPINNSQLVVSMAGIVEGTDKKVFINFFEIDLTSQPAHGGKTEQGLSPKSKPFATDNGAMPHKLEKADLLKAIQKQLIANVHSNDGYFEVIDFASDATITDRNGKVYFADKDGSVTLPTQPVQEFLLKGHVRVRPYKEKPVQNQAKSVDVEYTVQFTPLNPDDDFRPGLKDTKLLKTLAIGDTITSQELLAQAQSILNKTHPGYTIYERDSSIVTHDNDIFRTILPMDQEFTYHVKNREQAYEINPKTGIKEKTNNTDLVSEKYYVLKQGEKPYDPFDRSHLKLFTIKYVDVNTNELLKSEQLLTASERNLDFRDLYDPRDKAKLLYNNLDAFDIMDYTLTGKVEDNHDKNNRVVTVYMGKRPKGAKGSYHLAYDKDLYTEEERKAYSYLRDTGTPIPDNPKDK
The assay is described as follows: viability-normalized secreted streptokinase activity reduction – plasminogen activation absorbance, OD405, dose response (AID 1914).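 Also: secreted streptokinase activity via plasminogen activation per viability signal from cell pellet.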 The format is functional, Streptococcus pyogenes M1 GAS.

Assay [6] addresses T2, Cytochrome P450 1A2 (Homo sapiens, UniProt P05177).
T2 sequence (P05177 whole entry): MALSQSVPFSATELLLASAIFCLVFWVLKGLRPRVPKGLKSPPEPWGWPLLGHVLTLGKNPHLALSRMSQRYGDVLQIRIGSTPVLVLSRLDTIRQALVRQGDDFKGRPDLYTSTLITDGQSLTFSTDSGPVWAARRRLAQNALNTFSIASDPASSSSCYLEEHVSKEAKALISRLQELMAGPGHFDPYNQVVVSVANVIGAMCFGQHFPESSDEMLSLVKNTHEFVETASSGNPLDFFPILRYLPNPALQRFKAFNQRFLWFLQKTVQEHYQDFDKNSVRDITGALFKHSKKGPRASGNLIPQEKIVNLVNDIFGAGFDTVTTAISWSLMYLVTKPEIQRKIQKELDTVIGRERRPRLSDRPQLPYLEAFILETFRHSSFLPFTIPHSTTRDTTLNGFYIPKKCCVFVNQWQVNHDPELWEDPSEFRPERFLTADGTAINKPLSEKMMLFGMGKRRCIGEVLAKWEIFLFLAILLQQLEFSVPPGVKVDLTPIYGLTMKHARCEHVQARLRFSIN

Assay [7] concerns the target Cytochrome P450 2C9 (Homo sapiens, UniProt P11712).
The target in assay [8] is Cytochrome P450 2D6 (Homo sapiens, UniProt P10635).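 Also: CYP2D6 member of a cytochrome P450 panel assay.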
Assay [9] in a line: viability of uninfected HEp-2 cells – cell-based, HTS, cytotoxicity control for RSV inhibitor project, dose response (AID 2410). The format is functional. Particulars: human respiratory syncytial virus.
Assay [10] in a line: NIH3T3 cell viability loss – ATP luminescence, mouse fibroblasts, counter-screen, dose response (AID 2010).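 Also: cells exposed to compound for about 90 hours before reading.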 It is filed as functional, cell-based.
In assay [11] the target is T3, Rac GTPase-activating protein 1 (Homo sapiens, UniProt Q9H0H5).
T3 sequence (Q9H0H5 whole entry): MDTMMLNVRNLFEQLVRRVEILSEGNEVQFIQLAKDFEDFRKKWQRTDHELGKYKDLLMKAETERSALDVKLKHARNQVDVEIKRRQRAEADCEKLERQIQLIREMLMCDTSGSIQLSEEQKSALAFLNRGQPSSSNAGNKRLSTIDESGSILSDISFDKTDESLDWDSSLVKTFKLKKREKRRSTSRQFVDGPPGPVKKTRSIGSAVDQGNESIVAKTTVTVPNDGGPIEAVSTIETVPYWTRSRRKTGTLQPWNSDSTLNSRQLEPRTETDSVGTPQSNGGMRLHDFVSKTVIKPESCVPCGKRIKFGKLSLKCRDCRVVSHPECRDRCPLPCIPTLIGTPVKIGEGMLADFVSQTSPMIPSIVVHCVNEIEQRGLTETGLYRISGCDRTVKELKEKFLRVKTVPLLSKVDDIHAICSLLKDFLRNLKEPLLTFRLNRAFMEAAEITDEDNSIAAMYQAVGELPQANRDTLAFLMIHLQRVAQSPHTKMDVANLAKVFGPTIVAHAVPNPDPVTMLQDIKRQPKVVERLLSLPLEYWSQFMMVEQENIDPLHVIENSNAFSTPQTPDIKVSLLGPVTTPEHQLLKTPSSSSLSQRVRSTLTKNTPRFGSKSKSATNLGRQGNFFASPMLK
The assay is described as follows: blockers of MgcRacGAP-driven Rac1 GTP hydrolysis – biochemical, ADP Hunter fluorescence, primary and confirmatory, confirmation (AID 624330). The format is functional.

Assay [12] can be described thus: Trypanosoma cruzi growth suppression in host cells – NIH3T3 host cells, beta-gal luminescence, confirmation (AID 2044).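 Also: intracellular parasites grown in NIH/3T3 mouse fibroblasts as host cells; luminescent beta-galactosidase reporter signal from transgenic T. cruzi replicating inside host cells; inhibitors lower the luminescence signal.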 It is filed as functional, cell-based.
Assay [13] addresses T4, RNA-binding protein pos-1 (Caenorhabditis elegans, UniProt G5EF15).
T4 sequence (G5EF15 whole entry): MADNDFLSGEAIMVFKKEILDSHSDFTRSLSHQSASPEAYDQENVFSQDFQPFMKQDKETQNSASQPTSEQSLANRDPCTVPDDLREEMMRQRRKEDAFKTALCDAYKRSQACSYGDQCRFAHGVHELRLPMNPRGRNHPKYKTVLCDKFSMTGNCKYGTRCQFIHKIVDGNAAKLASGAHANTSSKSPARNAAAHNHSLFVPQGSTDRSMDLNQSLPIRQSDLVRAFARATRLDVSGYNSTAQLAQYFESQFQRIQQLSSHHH
The assay is described as follows: disruptors of C. elegans POS-1 RNA interaction – biochemical, fluorescence polarization, dose response (AID 1964). (In general: Polarisation of emitted light reports the rotation of a fluorescent probe.)

The subject of assay [14] is H4. Kind of assay: Luminescence Cell-Based Dose Response HTS to Identify Activators of 5'UTR Stem-Loop Driven Prion Protein mRNA Translation in H4 Neuroglioblastoma Cells. [Related pubchem assays: 1829 (Project Summary), 1814 (Primary HTS)]. Particulars: Homo sapiens. The format is functional.
Assay [15] addresses Cytochrome P450 2C19 (Homo sapiens, UniProt P33261). Kind of assay: Cytochrome panel assay with activity outcomes. Panel member name: p450-cyp2c19 Compounds with AC50 equal or less than 10 uM are considered active. It is filed as functional. Conditions: read-out: AC50.

Cytochrome P450 2D6, sequence (P10635 whole entry): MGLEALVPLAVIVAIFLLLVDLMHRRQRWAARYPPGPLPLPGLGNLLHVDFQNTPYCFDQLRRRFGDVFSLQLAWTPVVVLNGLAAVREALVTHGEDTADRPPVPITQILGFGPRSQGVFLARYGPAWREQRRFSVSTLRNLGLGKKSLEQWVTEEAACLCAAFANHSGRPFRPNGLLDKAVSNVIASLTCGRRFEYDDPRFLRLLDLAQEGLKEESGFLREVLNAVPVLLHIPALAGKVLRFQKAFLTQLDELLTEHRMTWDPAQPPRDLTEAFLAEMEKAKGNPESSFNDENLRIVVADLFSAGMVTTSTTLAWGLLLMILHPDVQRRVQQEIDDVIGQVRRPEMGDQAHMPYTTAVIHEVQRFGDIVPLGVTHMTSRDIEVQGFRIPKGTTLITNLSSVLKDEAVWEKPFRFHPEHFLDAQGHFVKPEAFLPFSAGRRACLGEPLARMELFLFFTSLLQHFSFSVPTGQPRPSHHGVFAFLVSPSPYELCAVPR
FAD-linked sulfhydryl oxidase ALR, sequence (P55789 whole entry): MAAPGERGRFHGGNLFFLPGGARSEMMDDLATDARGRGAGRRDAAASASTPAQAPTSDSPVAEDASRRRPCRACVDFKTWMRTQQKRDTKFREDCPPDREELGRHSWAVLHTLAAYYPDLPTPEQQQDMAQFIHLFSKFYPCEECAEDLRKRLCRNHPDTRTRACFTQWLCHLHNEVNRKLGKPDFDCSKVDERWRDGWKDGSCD
Cytochrome P450 2C9, sequence (P11712 whole entry): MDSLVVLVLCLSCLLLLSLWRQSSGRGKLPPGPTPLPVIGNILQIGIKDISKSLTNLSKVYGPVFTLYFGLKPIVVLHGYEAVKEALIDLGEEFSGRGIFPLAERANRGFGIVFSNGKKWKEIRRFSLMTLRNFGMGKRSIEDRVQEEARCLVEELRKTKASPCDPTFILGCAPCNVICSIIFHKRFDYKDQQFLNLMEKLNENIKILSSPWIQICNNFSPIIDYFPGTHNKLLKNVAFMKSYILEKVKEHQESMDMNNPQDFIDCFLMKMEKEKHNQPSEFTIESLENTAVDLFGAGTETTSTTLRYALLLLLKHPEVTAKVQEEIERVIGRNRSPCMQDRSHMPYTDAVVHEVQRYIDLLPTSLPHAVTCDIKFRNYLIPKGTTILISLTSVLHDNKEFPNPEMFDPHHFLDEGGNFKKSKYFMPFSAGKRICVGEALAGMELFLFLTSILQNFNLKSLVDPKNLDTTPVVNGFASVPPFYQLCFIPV
Cytochrome P450 2C19, sequence (P33261 whole entry): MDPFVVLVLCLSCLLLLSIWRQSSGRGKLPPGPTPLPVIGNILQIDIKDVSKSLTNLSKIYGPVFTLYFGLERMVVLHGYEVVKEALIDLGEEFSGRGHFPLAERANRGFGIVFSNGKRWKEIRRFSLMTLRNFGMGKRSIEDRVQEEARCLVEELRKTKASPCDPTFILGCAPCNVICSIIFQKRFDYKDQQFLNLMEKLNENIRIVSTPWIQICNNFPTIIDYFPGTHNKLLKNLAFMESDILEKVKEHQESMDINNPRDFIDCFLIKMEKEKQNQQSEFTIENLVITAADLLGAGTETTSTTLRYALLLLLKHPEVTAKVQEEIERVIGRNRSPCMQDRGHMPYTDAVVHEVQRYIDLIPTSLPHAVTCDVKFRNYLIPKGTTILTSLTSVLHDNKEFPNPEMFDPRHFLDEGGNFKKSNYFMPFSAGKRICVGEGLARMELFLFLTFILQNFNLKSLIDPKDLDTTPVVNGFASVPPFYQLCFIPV

Take `COc1ccc(N2CCN(C(=O)CCNC(=O)c3ccc(C(C)(C)C)cc3)CC2)cc1`: the AC50 in [1] is 10.1 µM (active). For the compound `C/C(CC(=O)Nc1ccc(Cl)c(C(F)(F)F)c1)=N\NC(=O)c1cc2ccccc2cc1O`, the EC50 in assay [2] is 8.14 µM (active); in [3], 1.57 µM (active); in [5], > 150 µM (not active). Further, in assay [4], the AC50 was 8.61 µM (active).

For `O=C(Nc1cccc(C(F)(F)F)c1)C1CCCN1S(=O)(=O)c1cccc2cccnc12` (stereo not given), the values for the AC50 in [6], in [7] and in [8] were 3.16 µM (inconclusive), 5.62 µM (inconclusive) and 31.6 µM (inconclusive), respectively. In the case of `C=CCc1ccc(OCCOCCOc2cccc3ccc(C)nc23)c(OC)c1`, the CC50 in assay [9] is 29.6 µM (active). On to `CN=C(S)N1CCN(c2ccc(Cl)c(Cl)c2)CC1`, for which the CC50 in [9] was 21.3 µM (active).

`CCc1nc(N2CCC(C)CC2)c2oc3ccccc3c2n1`: the AC50 in assay [4] was 4.63 µM (active). With `Oc1ccccc1-c1nnc(S)n1Cc1ccco1`, the AC50 in [1] is 4.75 µM (active). Still for that read-out and setting: for `CC1CCN(C(=S)c2ccc(N(C)C)cc2)CC1` the value was 0.915 µM (active). Consider `COc1ccc(CNc2ncncc2-c2c(C)noc2C)c(OC)c1`, for which the AC50 in [6] was 25.1 µM (inconclusive).

`COc1cc(C)c(N)cc1C(C)C`: the EC50 was > 60 µM (not active) in [10] and 16.9 µM (active) in [12]. The IC50 in assay [11] was 113 µM (active). In assay [1], the AC50 was 0.027 µM (active).

As for `CN(CC(=O)Nc1ccc(Cl)cc1)CC(=O)Nc1cccc(Br)c1`, the CC50 in assay [9] was 16.2 µM (active).

For `CC(/C=N/NC(=O)c1cccc([N+](=O)[O-])c1)=C\c1ccccc1`, the AC50 in assay [6] was 1.78 µM (inconclusive).

On to `Cc1cc2c(cc1S(=O)(=O)N1CCN(c3ccc(Cl)cc3)CC1)OCCN2C`, for which the CC50 in [9] was 41 µM (active).

For `C(=N\N=C(\Nc1ccccc1)c1ccccn1)/c1ccccn1`, in [13], the EC50 was > 300 µM (inconclusive). Turning to `CC1(C)Cc2c(sc(NC(=O)Nc3ccccc3)c2C(N)=O)CO1`, the EC50 in assay [14] is on record as > 120 µM (not active). For the compound `Cc1ccc(-c2cn3c(n2)SCC3)cc1`, the AC50 in assay [1] was 0.513 µM (active). `CN(C)CCNC(=O)C(C(=O)c1ccc(F)cc1)n1ccccc1=O` (stereo not given): the AC50 in assay [6] is 0.631 µM (inconclusive). `N#C/C(=C\c1ccc(N2CCCC2)c([N+](=O)[O-])c1)c1nc2ccccc2[nH]1`: in assay [6], the AC50 was 11.2 µM (inconclusive).

Take `Cc1nc(N/N=C/c2ccc(O)cc2)c2cnn(-c3ccccc3)c2n1`: the CC50 in assay [9] is 42.8 µM (active). As for `C1=C(c2sc3ccccc3c2-c2ccc(OCCN3CCOCC3)cc2)CCCC1`, in assay [4], the AC50 was 2.71 µM (active). With `CC(NC(=O)c1ccc(N2CCNCC2)c([N+](=O)[O-])c1)C12CC3CC(CC(C3)C1)C2` (stereo not given), the AC50 in [4] was 10.2 µM (active). Moreover, the CC50 in assay [9] was 16 µM (active).

In the case of `COc1cccc(NC(=O)COC(=O)c2nc3nccc(C)n3n2)c1`, the AC50 in assay [6] was 17.8 µM (inconclusive); in assay [8], 22.4 µM (inconclusive); in assay [15], 31.6 µM (inconclusive). Regarding `COCCNC(=S)N/N=C(\C)c1ccc(OC(F)F)cc1`, the CC50 in assay [9] is > 50 µM (active). On to `Cc1cc2c(cc(C(=O)O)n2C)s1`, for which, in assay [1], the AC50 is 30.9 µM (active). The same measure, in the same setting: for `COc1cc(OC)cc(C(=O)Nc2ccc(S(=O)(=O)Nc3cc(C)nc(C)n3)cc2)c1` the value was 1.68 µM (active). For the compound `CS(=O)(=O)Nc1cccc(-c2nc(NCCN3CCOCC3)c3ccccc3n2)c1`, in assay [6], the AC50 was 25.1 µM (inconclusive).

As for `Cc1c(C(=O)N(C)C)c2cc(Cl)ccc2n1O`, the AC50 in assay [1] is 0.722 µM (active). In the case of `C[C@@H](C(=O)Cc1ccc2ccccc2c1)[C@@H]1C[C@@]1(C)[C@@H](NP(=O)(c1ccccc1)c1ccccc1)c1ccccc1`, the AC50 in [6] is 10 µM (inconclusive). For `CC(CO)(CO)/N=C\c1cc(I)cc(I)c1O`, the AC50 in assay [6] is 1.58 µM (inconclusive); in assay [7], 6.31 µM (inconclusive). With `CCCc1cc(O)nc(SCC(=O)Nc2sc(C(N)=O)c(C)c2C(=O)OCCOC)n1`, in assay [4], the AC50 is 3.6 µM (active). With `O=[N+]([O-])c1ccc(S(=O)(=O)Nc2cccc(-c3ccc(N4CCOCC4)nn3)c2)cc1`, in assay [9], the CC50 is > 50 µM (active).

In the case of `O=C(c1ccc(F)cc1)C1CCN(CCn2c(=S)[nH]c3ccccc3c2=O)CC1` [ALTANSERIN], the AC50 was 15.8 µM (inconclusive) in [6], 25.1 µM (inconclusive) in [7] and 10 µM (inconclusive) in assay [8]. `Cc1nc2cc(C(F)(F)F)ccc2n1CCNc1nc(-c2cc(Cl)c(N)c(Cl)c2)cs1`: in assay [9], the CC50 was 19.7 µM (active). With `CCCOC(=O)C(=O)NNc1ccccc1`, the concentration at half-maximal activity (AC50) in [4] was 0.95 µM (active). As for `Cc1cc(N2CCOCC2)nc2ccc(N=C(S)N3CCCCC3C)cc12` (stereo not given), in assay [9], the CC50 is 18.2 µM (active).

Regarding `COc1ccc(CN2C(=O)CN(C3CCCCCC3)C(=O)C2c2ccc(OC)c(OC)c2)cc1` (stereo not given), the AC50 in assay [6] is 35.5 µM (inconclusive). In the case of `CCN(CC)c1ccc(NC(=O)CN2CCN(c3nc(C)cc(C)n3)CC2)cc1`, the AC50 in assay [1] is 1.03 µM (active). The same measure, in the same setting: under `Cc1ccc2nc(C)cc(N/N=C/c3ccccc3O)c2c1` stands 4.03 µM (active). Regarding `CC(C)OC(=O)c1cc2c(OC[C@@H](O)CNC(C)(C)C)cccc2[nH]1`, the values for the AC50 in assay [6] and in assay [8] were 31.6 µM (inconclusive) and 15.8 µM (inconclusive), respectively. `O=C1c2ccccc2C(=O)N1CCCCN(C(=O)c1cc([N+](=O)[O-])cc([N+](=O)[O-])c1)c1ccc(Cl)cc1`: the CC50 in assay [9] was > 50 µM (active).
